The text below walks through data of PubChem BioAssay (NCI).

Holding throughout (assay): NCI anticancer screen, dose series, 48 h
In assay [1] the test system is OVCAR-5 ovarian.
Assay [2] deals with EKVX NSCLC.
For assay [3], the system named is SK-MEL-5 melanoma.
The test system of assay [4] is TK-10 renal.
For assay [5], the system named is HOP-62 NSCLC.
In assay [6] the test system is K-562 leukemia.
Assay [7] deals with A549 NSCLC.
Assay [8] concerns HOP-92 NSCLC.
For assay [9], the system named is U251 CNS.
Assay [10] deals with NCI-H226 lung.
Assay [11] has as its system UACC-62 melanoma.
The subject of assay [12] is HCT-116 colon.
Assay [13] relates to BT-549 breast.
Assay [14] relates to 786-0 renal.
The subject of assay [15] is OVCAR-4 ovarian.
For assay [16], the system named is IGROV1 ovarian.
Assay [17] relates to CAKI-1 renal.
Assay [18] concerns M14 melanoma.
In assay [19] the test system is DU-145 prostate.
Assay [20] has as its system COLO 205 colon.

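Cultured in 96-well plates, cells were exposed to test compound for 48 hours across five concentrations. Definition used: TGI = concentration required for complete inhibition of growth.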

As to `COC(=O)C(/C(=N/N)C(=O)Nc1cccc(O)c1)c1nc2ccccc2[nH]c1=O` (stereo not drawn), the TGI in [1], in assay [2], in [3], in [4], in assay [5] and in assay [6] was more than 100 µM throughout. Moreover, the TGI in assay [7], in [8], in assay [9], in assay [10], in assay [11] and in assay [12] was more than 100 µM each time. For the same molecule, the TGI in [13], in assay [14], in assay [15], in assay [16], in assay [17] and in assay [18] was more than 100 µM each time.
For the molecule `COC(=O)c1ccc(/C=C2\Oc3cc(O)ccc3C2=O)cc1`, the TGI in assay [2], in assay [3], in [4], in assay [5], in assay [6] and in [7] was more than 100 µM throughout. Besides, the TGI in assay [9], in [10], in [19], in assay [11], in [12] and in assay [20] was more than 100 µM in each case. The TGI in assay [13], in [14], in assay [15], in assay [16], in assay [17] and in assay [18] was more than 100 µM throughout.
In the case of `O=c1c2n[nH]nc2nc2n1CC(c1ccccc1)S2` (stereo not drawn), the TGI in assay [1], in assay [2], in assay [3], in assay [4], in [5] and in [6] was more than 100 µM each time. For the same molecule, the TGI in [7], in assay [9], in assay [10], in assay [19], in [11] and in assay [12] was more than 100 µM throughout. For the same molecule, the TGI in assay [20] was more than 100 µM; in assay [13] it was more than 100 µM; in assay [14], more than 100 µM; in assay [15] it was more than 100 µM; in [16] it was more than 100 µM; in assay [17], 77.6 µM.
`O=C(c1ccccc1)N1CCC(Nc2nccs2)O1` (stereo not drawn): the TGI in assay [1], in assay [2], in assay [3], in assay [4], in assay [5] and in assay [6] was more than 10 µM each time. For the same molecule, the TGI in assay [7], in assay [10], in assay [19], in assay [12], in assay [20] and in [13] was more than 10 µM in each case. Besides, the TGI in assay [14], in assay [15], in assay [16], in assay [17] and in [18] was more than 10 µM each time.
Turning to `O=C(NCCCNCCCCNCCCNC(=O)c1cc(-c2ccccc2)nc2ccccc12)c1cc(-c2ccccc2)nc2ccccc12`, the TGI worked out at 5.26 µM in assay [1]; 18 µM in assay [2]; 26.3 µM in [3]; 23.8 µM in [4]; 11.2 µM in [5]; 3.83 µM in assay [6]. Besides, the TGI in assay [7] was 4.88 µM; in [8] it was 4.36 µM; in assay [19], more than 59.1 µM; in [11], 6.77 µM; in assay [12], more than 100 µM; in assay [13], 15.5 µM. For the same molecule, the TGI in [14] is 3 µM; in [15], more than 24.8 µM; in [16] it was 5.35 µM; in assay [17] it was 36.3 µM; in assay [18], 5.23 µM.
For `COC(=O)N/N=C(\c1ccccc1)c1ccc(OC)cc1`, the TGI in [1], in assay [2], in assay [3], in assay [4], in assay [6] and in assay [7] was more than 100 µM throughout. The TGI in assay [9], in [10], in assay [19], in assay [11], in [12] and in assay [20] was more than 100 µM throughout. Also, the TGI in assay [13], in assay [14], in assay [15], in [16], in [17] and in [18] was more than 100 µM each time.
On to `COc1ccc(/C=C2\N=C(c3ccccc3)OC2=O)cc1OC(C)=O`, for which the TGI in assay [1], in assay [3], in assay [4], in assay [5], in [6] and in assay [7] was more than 100 µM each time. Besides, the TGI in assay [8], in [9], in assay [10], in assay [19], in [11] and in [12] was more than 100 µM throughout. Further, the TGI in assay [20], in [13], in [14], in [15], in [16] and in assay [18] was more than 100 µM throughout.
With `O=C(NNC(=O)c1ccccc1O)c1ccco1`, the TGI in [1], in [2], in assay [3], in assay [4], in assay [5] and in assay [6] was more than 100 µM in each case. The TGI in [7], in assay [9], in assay [10], in assay [19], in assay [11] and in [12] was more than 100 µM in each case. The TGI in assay [20], in assay [13], in assay [14], in [15], in assay [16] and in assay [17] was more than 100 µM each time. Also, in assay [18], the TGI was more than 100 µM.
